For data set [1] the following is noted: in vivo; cited from earlier work.
The subject of data set [2] is human prostate tissues. Briefly: organ bath, phenylephrine-induced contractions of human prostate strips. The protocol:
(§1) Human prostate tissues were obtained from patients undergoing radical prostatectomy for prostate cancer (n=107). Patients who underwent previous transurethral resection of the prostate (TURP) were excluded. This study was carried out in accordance with the Declaration of Helsinki of the World Medical Association, and has been approved by the ethics committee of the Ludwig-Maximilians University, Munich, Germany (Ethikkommission bei der LMU Munchen, approval number 19-737). Informed consent was obtained from all patients. According to the ethical approval, samples and data were collected and analyzed anonymously, so that no data on patients' characteristics were stored. […]
(§2) Prostate strips (6×3×3 mm) were mounted in 10 ml aerated (95% 02 and 5% CO2) tissue baths (Danish Myotechnology, Aarhus, Denmark), containing Krebs-Henseleit solution (37° C., pH 7.4) with following composition: 118 mM NaCl, 4.7 mM KCl, 2.55 mM CaCl2), 1.2 mM KH2PO4, 1.2 mM MgSO4, 25 mM NaHCO3, 7.5 mM glucose. […] Only one curve was recorded with each sample, i. e. for one agonist, or for electric field stimulation (EFS).
(§3) After mounting in organ bath chambers, preparations were stretched to 4.9 mN and left to equilibrate for 45 min. […] After the equilibration period, maximum contraction induced by 80 mM KCl was assessed. […]

A further data set relates to 296 kinases. The note with it: cited from earlier work.
In data set [3] the test system is human prostate tissues. Briefly: organ bath, EFS-induced (neurogenic) contractions of human prostate strips. An excerpt:
Patients who underwent previous transurethral resection of the prostate (TURP) were excluded. […] Informed consent was obtained from all patients. According to the ethical approval, samples and data were collected and analyzed anonymously, so that no data on patients' characteristics were stored. Samples were taken immediately after prostatectomy, following macroscopical examination by an uro-pathologist. […] For macroscopic examination and sampling, the prostate was opened by a single longitudinal cut from the capsule to the urethra. Subsequently, both intersections were checked macroscopically for any obvious tumor infiltration. […] Prostates showing tumors in the periurethral zone in macroscopic inspection were not subjected to sampling and were not included in this study. Organ bath studies were performed immediately after sampling, while samples for molecular analyses were shock frozen in liquid nitrogen and stored at −80° C.
In each single experiment, two from four strips obtained from the same prostate were allocated to the control group (without inhibitor or antagonist), and two others to the inhibitor/antagonist group (resulting in duplicate determination for each group in each single experiment). All four samples of one experiment were examined in four chambers of the same organ bath. Consequently, control and inhibitor curves in each series/diagram were obtained from the same prostates, but different prostates were examined for different series/diagrams. […] Therefore, and considering that prostate tissues from radical prostatectomy may show considerable heterogeneity, statistical comparisons were only performed between groups within the same series (i. e. containing tissues from the same prostates for inhibitor and control group), but not between series obtained from different prostates (i. e., not across different series of organ bath experiments). Only one curve was recorded with each sample, i. e. for one agonist, or for electric field stimulation (EFS).
Subsequently, chambers were washed three times with Krebs-Henseleit solution for a total of 30 min.
Application of EFS simulates action potentials, resulting in the release of endogenous neurotransmitters, including noradrenaline. […] For EFS, tissue strips were placed between two parallel platinum electrodes connected to a CS4 stimulator (Danish Myotechnology). […] EFS-induced contractile responses were studied at frequencies of 2, 4, 8, 16, and 32 Hz, with train intervals of 30 s between stimulations.
Data analyses and calculations were based on maximum peak heights of contractions. For calculation of agonist- or EFS-induced contractions, tensions were expressed as % of KCl-induced contractions, as this may correct different stromal/epithelial ratios, different smooth muscle content, varying degree of BPH, or any other heterogeneity between prostate samples and patients.

Data set [4] relates to human prostate tissues. The experiment in a line: organ bath, ATP-induced contractions of human prostate strips. As to conditions: read-out: inhibition of ATP-induced contraction. The protocol: as §1, §2, §3
For data set [5] the following is noted: humans, phase I, even by the lowest dosages tested (Weiss et al., 2018); cited from earlier work.

Where “and” joins values, the source holds several entries; their conditions need not be identical. Identical values can stand only once.

A word on the inhibition: it is the change of the read-out against control, counted positive when it falls. As to `CN1CCN(c2ccc(OC(F)(F)F)c(Nc3ncc4c(n3)-c3c(c(C(N)=O)nn3CCO)CC4)c2)CC1` [onvansertib, 1-(2-hydroxyethyl)-8-{[5-(4-methylpiperazin-1-yl)-2-(trifluoromethoxy)phenyl]amino}-4,5-dihydro-1H-pyrazolo[4,3-h] quinazoline-3-carboxamide], the oral bioavailability entry in data set [1] is “good oral bioavailability”. Also, the inhibition at 0.1 µM was 47 ± 16.2% in the data set with human prostate tissues [2], 34% in the data set with human prostate tissues [3] (Homo sapiens) and 51 ± 18.6% with human prostate tissues [4]. Besides, in the data set with 296 kinases (tested at 100 nM against 296 kinases), the kinases inhibited result is “inhibition only of PLK1”. Besides, in the data set with 296 kinases (tested at 1 μM against 296 kinases, including PLK1), the “number of kinases with decreases in activities (<50%)” value is 11. Further, in the data set on human prostate tissues [3] (32 Hz, onvansertib 100 nM combined with silodosin 100 nM), the “inhibition of EFS-induced contraction by add-on of onvansertib, compared to silodosin alone” value is 61% and 61±9.8%. In addition, in the data set with human prostate tissues [3] (32 Hz, onvansertib 100 nM combined with tamsulosin 300 nM), the “inhibition of EFS-induced contraction by add-on of onvansertib, compared to tamsulosin alone” value is 59% and 59±11.5%. In addition, in the data set on human prostate tissues [3] (Homo sapiens), the inhibition at 1 µM was found to be 34%. Further, in the data set on human prostate tissues [3] (washout of onvansertib (100 nM) for 30 min), the “EFS-induced contractions after washout versus DMSO” value was “did not differ”. For the same compound, the plasma concentrations entry in data set [5] is “three-digit nanomolar range”.
